{"source": "paper PMC6138237", "about": "“Machine intelligence decrypts β-lapachone as an allosteric 5-lipoxygenase inhibitor” (Chemical Science, 2018)", "key": {"FGFR2": {"biological_target": "FGFR2 (Homo sapiens, UniProt P21802)", "sequence (P21802 22-821)": "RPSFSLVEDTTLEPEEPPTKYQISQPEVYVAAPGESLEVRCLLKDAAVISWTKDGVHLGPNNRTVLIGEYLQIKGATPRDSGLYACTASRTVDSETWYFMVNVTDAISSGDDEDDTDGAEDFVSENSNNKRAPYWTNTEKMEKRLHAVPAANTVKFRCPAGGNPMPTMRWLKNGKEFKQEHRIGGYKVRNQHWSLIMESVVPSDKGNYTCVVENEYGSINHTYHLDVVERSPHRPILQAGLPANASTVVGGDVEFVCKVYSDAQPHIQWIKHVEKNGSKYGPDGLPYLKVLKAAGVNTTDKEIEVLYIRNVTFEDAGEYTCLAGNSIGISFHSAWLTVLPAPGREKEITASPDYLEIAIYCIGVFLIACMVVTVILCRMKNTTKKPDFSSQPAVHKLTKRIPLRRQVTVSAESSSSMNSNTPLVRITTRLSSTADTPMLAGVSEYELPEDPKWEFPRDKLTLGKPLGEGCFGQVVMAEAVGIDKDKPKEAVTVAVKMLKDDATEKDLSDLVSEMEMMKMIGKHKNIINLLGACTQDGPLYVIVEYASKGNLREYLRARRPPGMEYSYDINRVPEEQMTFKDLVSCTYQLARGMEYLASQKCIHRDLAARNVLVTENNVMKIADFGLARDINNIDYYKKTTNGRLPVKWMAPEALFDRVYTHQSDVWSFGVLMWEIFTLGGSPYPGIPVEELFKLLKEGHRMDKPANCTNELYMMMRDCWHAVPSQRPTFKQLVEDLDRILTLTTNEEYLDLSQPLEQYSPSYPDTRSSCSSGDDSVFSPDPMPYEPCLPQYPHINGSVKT", "experiment": "ExpresS Diversity Kinase Profile, Cerep (LANCE): FGFR2", "format": "biochemical"}, "Lck": {"biological_target": "Lck (Homo sapiens, UniProt P06239)", "experiment": "ExpresS Diversity Kinase Profile, Cerep (LANCE): Lck", "format": "biochemical"}, "PKCβ2": {"biological_target": "PKCβ2 (Homo sapiens, UniProt P05771)", "experiment": "ExpresS Diversity Kinase Profile, Cerep (LANCE): PKCβ2", "format": "biochemical"}, "5-LO [1]": {"biological_target": "T1, 5-LO (Homo sapiens, UniProt P09917)", "T1 sequence (P09917 1-674)": "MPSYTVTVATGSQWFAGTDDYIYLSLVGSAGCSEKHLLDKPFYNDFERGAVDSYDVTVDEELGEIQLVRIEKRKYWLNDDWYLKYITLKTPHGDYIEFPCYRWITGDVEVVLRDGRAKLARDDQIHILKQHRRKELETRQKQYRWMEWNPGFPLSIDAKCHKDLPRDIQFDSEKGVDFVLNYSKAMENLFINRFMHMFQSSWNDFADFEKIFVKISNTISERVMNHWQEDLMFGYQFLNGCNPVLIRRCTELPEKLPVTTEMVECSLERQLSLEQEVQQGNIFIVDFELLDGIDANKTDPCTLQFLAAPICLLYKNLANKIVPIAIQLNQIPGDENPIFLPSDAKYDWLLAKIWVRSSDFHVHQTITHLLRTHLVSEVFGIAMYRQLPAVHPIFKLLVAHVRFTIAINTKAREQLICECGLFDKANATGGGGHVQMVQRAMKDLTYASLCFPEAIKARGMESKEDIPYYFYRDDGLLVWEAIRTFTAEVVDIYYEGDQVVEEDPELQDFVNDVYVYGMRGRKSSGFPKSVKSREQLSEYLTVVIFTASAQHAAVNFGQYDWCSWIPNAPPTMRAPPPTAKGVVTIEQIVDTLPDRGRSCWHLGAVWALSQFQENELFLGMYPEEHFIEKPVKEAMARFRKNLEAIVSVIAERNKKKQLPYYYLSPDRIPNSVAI", "experiment": "5-LO product formation in neutrophil homogenates"}, "5-LO [2]": {"biological_target": "T1, 5-LO", "experiment": "5-LO inhibition assay, Cerep (Method A, indirect fluorogenic readout, Rhodamine 123)", "format": "biochemical"}, "FGFR1": {"biological_target": "FGFR1 (Homo sapiens, UniProt P11362)", "sequence (P11362 22-822)": "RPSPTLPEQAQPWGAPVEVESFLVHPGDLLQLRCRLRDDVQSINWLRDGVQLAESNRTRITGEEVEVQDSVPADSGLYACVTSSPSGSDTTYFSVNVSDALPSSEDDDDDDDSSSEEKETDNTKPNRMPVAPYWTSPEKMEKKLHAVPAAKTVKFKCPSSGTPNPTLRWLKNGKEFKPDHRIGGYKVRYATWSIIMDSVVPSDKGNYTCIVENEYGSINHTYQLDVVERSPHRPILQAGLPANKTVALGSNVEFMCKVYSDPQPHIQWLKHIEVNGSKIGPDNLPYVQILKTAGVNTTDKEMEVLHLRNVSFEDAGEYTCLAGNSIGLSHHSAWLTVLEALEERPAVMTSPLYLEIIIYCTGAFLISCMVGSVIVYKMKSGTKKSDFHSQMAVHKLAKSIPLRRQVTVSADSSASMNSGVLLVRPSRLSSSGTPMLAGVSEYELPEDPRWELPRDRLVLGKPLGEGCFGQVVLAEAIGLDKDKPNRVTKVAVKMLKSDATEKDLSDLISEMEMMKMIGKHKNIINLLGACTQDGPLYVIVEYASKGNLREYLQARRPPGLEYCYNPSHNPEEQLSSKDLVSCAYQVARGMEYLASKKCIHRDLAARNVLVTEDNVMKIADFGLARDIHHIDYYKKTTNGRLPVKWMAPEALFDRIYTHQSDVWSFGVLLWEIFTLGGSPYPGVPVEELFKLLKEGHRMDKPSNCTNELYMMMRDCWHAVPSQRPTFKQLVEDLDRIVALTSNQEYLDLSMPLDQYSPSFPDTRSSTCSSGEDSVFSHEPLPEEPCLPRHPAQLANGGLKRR", "experiment": "ExpresS Diversity Kinase Profile, Cerep (LANCE): FGFR1", "format": "biochemical"}, "TRPM8": {"biological_target": "T2, TRPM8 (Homo sapiens, UniProt Q7Z2W7)", "T2 construct": "Cerep, SA (fee-for-service assay) printed G018533 (citation number 33 glued on)", "T2 sequence (Q7Z2W7 whole entry)": "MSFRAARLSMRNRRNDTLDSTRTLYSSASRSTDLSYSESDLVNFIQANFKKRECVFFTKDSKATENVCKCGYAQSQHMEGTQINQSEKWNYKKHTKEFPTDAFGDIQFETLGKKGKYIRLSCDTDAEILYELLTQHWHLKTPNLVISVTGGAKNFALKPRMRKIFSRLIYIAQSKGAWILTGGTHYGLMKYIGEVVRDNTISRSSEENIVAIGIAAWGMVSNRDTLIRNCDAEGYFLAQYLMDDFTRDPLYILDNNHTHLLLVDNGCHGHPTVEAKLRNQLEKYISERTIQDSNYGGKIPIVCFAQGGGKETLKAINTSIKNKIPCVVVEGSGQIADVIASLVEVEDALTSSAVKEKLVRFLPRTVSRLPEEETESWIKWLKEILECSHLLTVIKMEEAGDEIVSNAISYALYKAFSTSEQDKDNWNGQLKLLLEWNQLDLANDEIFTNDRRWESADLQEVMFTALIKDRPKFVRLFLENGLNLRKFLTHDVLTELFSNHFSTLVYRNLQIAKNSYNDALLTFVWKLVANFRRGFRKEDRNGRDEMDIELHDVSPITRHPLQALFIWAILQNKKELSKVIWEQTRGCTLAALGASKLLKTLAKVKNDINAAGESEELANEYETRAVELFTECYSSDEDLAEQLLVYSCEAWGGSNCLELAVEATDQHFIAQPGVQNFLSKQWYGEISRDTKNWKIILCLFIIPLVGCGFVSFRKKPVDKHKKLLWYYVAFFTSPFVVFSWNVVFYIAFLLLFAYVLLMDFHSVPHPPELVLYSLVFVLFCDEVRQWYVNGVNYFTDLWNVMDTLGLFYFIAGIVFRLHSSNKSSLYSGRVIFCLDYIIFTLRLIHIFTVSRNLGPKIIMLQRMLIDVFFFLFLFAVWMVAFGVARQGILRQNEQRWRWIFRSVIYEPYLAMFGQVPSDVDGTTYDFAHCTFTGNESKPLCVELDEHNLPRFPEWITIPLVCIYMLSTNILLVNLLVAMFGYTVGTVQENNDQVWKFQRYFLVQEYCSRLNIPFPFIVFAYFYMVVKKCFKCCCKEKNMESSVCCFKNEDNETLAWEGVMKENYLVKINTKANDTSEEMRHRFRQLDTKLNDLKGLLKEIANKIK", "experiment": "TRPM8 functional agonist assay, Cerep (intracellular Ca2+)", "format": "cell-based", "conditions": "TRPM8 (agonist), 150 µM"}, "ERK2": {"biological_target": "ERK2 (Homo sapiens, UniProt P28482)", "sequence (P28482 whole entry)": "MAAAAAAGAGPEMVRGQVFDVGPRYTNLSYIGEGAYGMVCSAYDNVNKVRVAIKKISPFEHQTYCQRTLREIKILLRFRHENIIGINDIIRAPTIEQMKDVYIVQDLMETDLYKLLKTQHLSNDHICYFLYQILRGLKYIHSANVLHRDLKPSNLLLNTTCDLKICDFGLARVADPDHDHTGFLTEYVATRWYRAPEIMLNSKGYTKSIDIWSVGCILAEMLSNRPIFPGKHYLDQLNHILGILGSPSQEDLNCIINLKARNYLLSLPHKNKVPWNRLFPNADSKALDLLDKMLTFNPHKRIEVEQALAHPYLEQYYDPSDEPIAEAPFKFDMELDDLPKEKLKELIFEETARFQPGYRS", "experiment": "ExpresS Diversity Kinase Profile, Cerep (LANCE): ERK2", "format": "biochemical"}, "CHK2": {"biological_target": "CHK2 (Homo sapiens, UniProt O96017)", "sequence (O96017 whole entry)": "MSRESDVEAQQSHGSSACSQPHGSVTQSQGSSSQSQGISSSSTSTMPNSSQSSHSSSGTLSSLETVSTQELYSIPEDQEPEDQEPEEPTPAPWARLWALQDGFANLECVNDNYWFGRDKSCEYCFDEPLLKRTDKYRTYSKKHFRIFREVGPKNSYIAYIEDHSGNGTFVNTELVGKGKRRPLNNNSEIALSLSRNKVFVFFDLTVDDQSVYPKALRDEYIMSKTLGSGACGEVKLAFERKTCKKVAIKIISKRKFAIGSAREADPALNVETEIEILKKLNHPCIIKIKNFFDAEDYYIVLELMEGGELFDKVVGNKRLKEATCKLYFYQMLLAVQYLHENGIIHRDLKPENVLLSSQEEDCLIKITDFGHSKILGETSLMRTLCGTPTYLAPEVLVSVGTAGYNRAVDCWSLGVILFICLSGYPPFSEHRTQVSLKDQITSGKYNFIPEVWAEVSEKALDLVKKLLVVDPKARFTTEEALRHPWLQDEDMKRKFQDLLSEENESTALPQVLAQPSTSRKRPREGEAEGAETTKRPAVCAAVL", "experiment": "ExpresS Diversity Kinase Profile, Cerep (LANCE): CHK2", "format": "biochemical"}, "ROCK1": {"biological_target": "ROCK1 (Homo sapiens, UniProt Q13464)", "sequence (Q13464 whole entry)": "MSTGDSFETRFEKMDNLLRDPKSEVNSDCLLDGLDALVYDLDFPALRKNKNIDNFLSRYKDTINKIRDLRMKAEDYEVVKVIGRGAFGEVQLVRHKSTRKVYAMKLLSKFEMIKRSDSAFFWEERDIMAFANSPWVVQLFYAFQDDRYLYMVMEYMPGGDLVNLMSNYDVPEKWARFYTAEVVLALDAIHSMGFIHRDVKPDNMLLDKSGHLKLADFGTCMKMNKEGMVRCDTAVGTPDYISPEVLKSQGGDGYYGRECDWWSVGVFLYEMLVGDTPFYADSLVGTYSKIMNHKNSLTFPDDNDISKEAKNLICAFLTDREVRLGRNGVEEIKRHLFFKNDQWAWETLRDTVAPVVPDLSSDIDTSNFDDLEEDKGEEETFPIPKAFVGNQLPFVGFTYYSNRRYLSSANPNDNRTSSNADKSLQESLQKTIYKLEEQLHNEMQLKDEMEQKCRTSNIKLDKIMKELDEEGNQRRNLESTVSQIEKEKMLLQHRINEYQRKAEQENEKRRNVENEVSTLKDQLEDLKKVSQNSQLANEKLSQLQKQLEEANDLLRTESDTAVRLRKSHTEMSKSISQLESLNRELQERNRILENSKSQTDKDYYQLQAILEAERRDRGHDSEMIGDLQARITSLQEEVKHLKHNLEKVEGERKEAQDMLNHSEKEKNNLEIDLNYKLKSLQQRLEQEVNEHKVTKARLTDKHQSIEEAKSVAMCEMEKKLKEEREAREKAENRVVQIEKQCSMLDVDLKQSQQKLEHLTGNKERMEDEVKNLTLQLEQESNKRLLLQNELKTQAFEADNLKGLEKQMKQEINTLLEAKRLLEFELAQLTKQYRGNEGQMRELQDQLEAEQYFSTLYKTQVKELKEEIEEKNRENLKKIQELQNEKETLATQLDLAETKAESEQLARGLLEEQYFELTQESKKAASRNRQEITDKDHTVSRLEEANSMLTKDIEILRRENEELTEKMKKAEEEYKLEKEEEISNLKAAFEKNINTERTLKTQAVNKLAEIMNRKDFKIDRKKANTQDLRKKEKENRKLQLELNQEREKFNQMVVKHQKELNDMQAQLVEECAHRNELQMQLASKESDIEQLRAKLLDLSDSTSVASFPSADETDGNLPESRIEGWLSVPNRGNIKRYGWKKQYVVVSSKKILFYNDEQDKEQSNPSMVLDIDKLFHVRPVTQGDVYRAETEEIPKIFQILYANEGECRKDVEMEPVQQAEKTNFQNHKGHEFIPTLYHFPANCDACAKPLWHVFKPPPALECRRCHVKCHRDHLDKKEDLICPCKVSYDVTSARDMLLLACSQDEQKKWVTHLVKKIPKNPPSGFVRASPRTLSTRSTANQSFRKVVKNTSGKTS", "experiment": "ExpresS Diversity Kinase Profile, Cerep (LANCE): ROCK1", "format": "biochemical"}, "HL-60 cells": {"test_system": "HL-60 cells", "experiment": "HL-60 cell viability assay (Alamar Blue, 48 hours)", "conditions": "Homo sapiens, HL-60, 48 h"}, "PDE5": {"biological_target": "PDE5 (Homo sapiens, UniProt O76074)", "experiment": "Phosphodiesterase 5 inhibition assay, Cerep (scintillation counting)", "format": "biochemical", "conditions": "for percent inhibition at 2 µM: PDE5"}, "EP1": {"biological_target": "T3, EP1 (Homo sapiens, UniProt P34995)", "T3 sequence (P34995 1-402)": "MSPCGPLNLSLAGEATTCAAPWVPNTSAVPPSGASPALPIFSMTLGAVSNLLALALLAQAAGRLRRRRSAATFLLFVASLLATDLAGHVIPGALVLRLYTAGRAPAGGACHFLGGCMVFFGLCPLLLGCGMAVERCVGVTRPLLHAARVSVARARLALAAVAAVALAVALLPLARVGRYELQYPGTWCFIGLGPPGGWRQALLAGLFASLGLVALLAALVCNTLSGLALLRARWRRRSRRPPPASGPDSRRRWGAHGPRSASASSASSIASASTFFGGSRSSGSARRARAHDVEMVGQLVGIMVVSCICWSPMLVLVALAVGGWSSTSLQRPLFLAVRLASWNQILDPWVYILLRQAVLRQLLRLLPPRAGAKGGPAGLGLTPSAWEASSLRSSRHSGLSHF", "experiment": "EP1 functional antagonist assay, Cerep (PGE2 3 nM, intracellular Ca2+)"}, "[3]": {"conditions": "Flag: Interference, read-out: % Inhibition of control values, 1st measurement"}, "[4]": {"conditions": "Flag: Interference, read-out: % Inhibition of control values, 2nd measurement"}, "[5]": {"conditions": "n = 2, Flag: Interference, read-out: % Inhibition of control values, Mean"}, "[6]": {"conditions": "n = 2, read-out: % Inhibition of control values, Mean"}, "[7]": {"conditions": "read-out: % Inhibition of control values, 1st measurement"}, "[8]": {"conditions": "read-out: % Inhibition of control values, 2nd measurement"}, "[9]": {"conditions": "n = 2, read-out: % of control values, Mean"}, "[10]": {"conditions": "read-out: % of control values, 1st measurement"}, "[11]": {"conditions": "read-out: % of control values, 2nd measurement"}}, "note": "Where “and” joins values, the source holds several entries; their conditions need not be identical. Identical values can stand only once. Like-named read-outs stand apart in the source and are kept apart here.", "data": [{"compound": "CC1(C)CCC2=C(O1)c1ccccc1C(=O)C2=O", "note": "[β-Lapachone]", "values": [{"measurement": "inhibition at 150 µM", "setting": "FGFR2; [3]", "result": 44.8, "unit": "%"}, {"measurement": "inhibition at 150 µM", "setting": "FGFR2; [4]", "result": 55.2, "unit": "%"}, {"measurement": "inhibition at 150 µM", "setting": "FGFR2; [5]", "result": 50, "unit": "%"}, {"measurement": "inhibition at 150 µM", "setting": "Lck; [3]", "result": -32.6, "unit": "%"}, {"measurement": "inhibition at 150 µM", "setting": "Lck; [4]", "result": -37.7, "unit": "%"}, {"measurement": "inhibition at 150 µM", "setting": "Lck; [5]", "result": -35.2, "unit": "%"}, {"measurement": "inhibition at 150 µM", "setting": "PKCβ2; [6]", "result": 34, "unit": "%"}, {"measurement": "inhibition at 150 µM", "setting": "PKCβ2; [7]", "result": 36.5, "unit": "%"}, {"measurement": "inhibition at 150 µM", "setting": "PKCβ2; [8]", "result": 31.6, "unit": "%"}, {"measurement": "IC50", "setting": "5-LO [1]; IC50 (with DTT), neutrophil homogenates with 1 mM DTT, n = 3", "result": "90 nM and 85 nM"}, {"measurement": "IC50", "setting": "5-LO [1]; IC50 (without DTT), neutrophil homogenates without DTT, n = 3", "result": 5200, "unit": "nM"}, {"measurement": "IC50", "setting": "5-LO [1]; IC50, neutrophil homogenates with 1 mM dithiothreitol", "result": 85.5, "unit": "nM"}, {"measurement": "ligand efficiency (LE)", "setting": "5-LO [2]; 5-LO", "result": 0.44}, {"measurement": "inhibition at 5 µM", "setting": "5-LO [2]; 5-LO, n = 2, read-out: % inhibition of control values, Mean", "result": 102, "unit": "%"}, {"measurement": "inhibition at 5 µM", "setting": "5-LO [2]; 5-LO, read-out: % inhibition of control values, 1st measure", "result": 103, "unit": "%"}, {"measurement": "inhibition at 5 µM", "setting": "5-LO [2]; 5-LO, read-out: % inhibition of control values, 2nd measure", "result": 99.8, "unit": "%"}, {"measurement": "inhibition at 150 µM", "setting": "5-LO [2]; 5-LO, 150 µM, read-out: % inhibition of control values, 1st measure", "result": 98.4, "unit": "%"}, {"measurement": "inhibition at 150 µM", "setting": "5-LO [2]; 5-LO, 150 µM, read-out: % inhibition of control values, 2nd measure", "result": 92.9, "unit": "%"}, {"measurement": "IC50", "setting": "5-LO [2]; 5-LO, indirect fluorogenic readout, read-out: Experimental –log(IC50 or KD) (converted)", "result": 2510, "unit": "nM"}, {"measurement": "ligand efficiency (LE)", "setting": "5-LO [2]; 5-LO, listed as 1", "result": "> 0.30"}, {"measurement": "IC50", "setting": "5-LO [2]; IC50, 5-LO, indirect fluorescence detection (Cerep), n = 2", "result": 2100, "unit": "nM"}, {"measurement": "inhibition at 150 µM", "setting": "5-LO [2]; read-out: % inhibition of control values, Mean", "result": 95.7, "unit": "%"}, {"measurement": "inhibition at 150 µM", "setting": "FGFR1; [3]", "result": 51.5, "unit": "%"}, {"measurement": "inhibition at 150 µM", "setting": "FGFR1; [4]", "result": 60.5, "unit": "%"}, {"measurement": "inhibition at 150 µM", "setting": "FGFR1; [5]", "result": 56, "unit": "%"}, {"measurement": "remaining activity at 150 µM", "setting": "TRPM8; [9]", "result": -20.4, "unit": "%"}, {"measurement": "remaining activity at 150 µM", "setting": "TRPM8; [10]", "result": -20.4, "unit": "%"}, {"measurement": "remaining activity at 150 µM", "setting": "TRPM8; [11]", "result": -20.4, "unit": "%"}, {"measurement": "inhibition at 150 µM", "setting": "ERK2; [6]", "result": 45.9, "unit": "%"}, {"measurement": "inhibition at 150 µM", "setting": "ERK2; [7]", "result": 44.8, "unit": "%"}, {"measurement": "inhibition at 150 µM", "setting": "ERK2; [8]", "result": 46.9, "unit": "%"}, {"measurement": "inhibition at 150 µM", "setting": "CHK2; [3]", "result": 46.6, "unit": "%"}, {"measurement": "inhibition at 150 µM", "setting": "CHK2; [4]", "result": 59.5, "unit": "%"}, {"measurement": "inhibition at 150 µM", "setting": "CHK2; [5]", "result": 53.1, "unit": "%"}, {"measurement": "inhibition at 150 µM", "setting": "ROCK1; [3]", "result": -12.5, "unit": "%"}, {"measurement": "inhibition at 150 µM", "setting": "ROCK1; [4]", "result": -3.2, "unit": "%"}, {"measurement": "inhibition at 150 µM", "setting": "ROCK1; [5]", "result": -7.9, "unit": "%"}, {"measurement": "IC50", "setting": "HL-60 cells; read-out: IC50 (control)", "result": 390, "unit": "nM"}, {"measurement": "IC50", "setting": "HL-60 cells; read-out: IC50 (differentiated)", "result": 180, "unit": "nM"}, {"measurement": "IC50", "setting": "PDE5", "result": "> 10", "unit": "µM"}, {"measurement": "percent inhibition at 2 µM", "setting": "PDE5; [9]", "result": -8.3, "unit": "%"}, {"measurement": "percent inhibition at 2 µM", "setting": "PDE5; [10]", "result": -6.9, "unit": "%"}, {"measurement": "percent inhibition at 2 µM", "setting": "PDE5; [11]", "result": -9.7, "unit": "%"}, {"measurement": "activity against PDE5", "setting": "PDE5; screening against phosphodiesterase 5", "result": "inactivity"}, {"measurement": "IC50", "setting": "EP1", "result": "> 100", "unit": "µM"}]}]}
